From article PMC11062922 (Nature Chemical Biology, 2023)
Where two headings read alike, the source gives them in different places.

Columns and labels:
CIT = target: T1, CIT (Homo sapiens, UniProt O14578); assay: Kinobeads full dose-response competition binding: CIT; details: Gene Name CIT
T1 construct: endogenous in cells

CK2alpha2 (CSNK2A2) = target: T2, CK2alpha2 (CSNK2A2) (Homo sapiens, UniProt P19784); assay: Recombinant kinase activity assay (ProQinase, FlashPlate radiometric): CK2alpha2; assay type: biochemical
T2 construct: purchased ProQinase
T2 sequence (P19784 whole entry): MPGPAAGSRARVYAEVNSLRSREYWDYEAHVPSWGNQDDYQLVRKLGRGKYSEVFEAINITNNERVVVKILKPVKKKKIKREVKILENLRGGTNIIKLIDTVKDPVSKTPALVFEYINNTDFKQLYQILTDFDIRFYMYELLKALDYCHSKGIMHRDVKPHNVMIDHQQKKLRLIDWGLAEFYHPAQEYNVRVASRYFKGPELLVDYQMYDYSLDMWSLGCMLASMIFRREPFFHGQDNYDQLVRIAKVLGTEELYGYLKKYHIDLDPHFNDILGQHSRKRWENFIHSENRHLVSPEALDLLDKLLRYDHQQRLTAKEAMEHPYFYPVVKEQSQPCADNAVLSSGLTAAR
Protocol: (§1) Kinase activity assays were performed by ProQinase. Dose-dependent activity inhibition of CDK1/cyclinB, CK2alpha1 and CK2alpha2 were measured using a FlashPlateTM-based radiometric assay at KM (ATP) of the respective kinase.

CK2alpha1 (CSNK2A1) = target: T3, CK2alpha1 (CSNK2A1) (Homo sapiens, UniProt P68400); assay: Recombinant kinase activity assay (ProQinase, FlashPlate radiometric): CK2alpha1; assay type: biochemical
T3 construct: purchased ProQinase
T3 sequence (P68400 whole entry): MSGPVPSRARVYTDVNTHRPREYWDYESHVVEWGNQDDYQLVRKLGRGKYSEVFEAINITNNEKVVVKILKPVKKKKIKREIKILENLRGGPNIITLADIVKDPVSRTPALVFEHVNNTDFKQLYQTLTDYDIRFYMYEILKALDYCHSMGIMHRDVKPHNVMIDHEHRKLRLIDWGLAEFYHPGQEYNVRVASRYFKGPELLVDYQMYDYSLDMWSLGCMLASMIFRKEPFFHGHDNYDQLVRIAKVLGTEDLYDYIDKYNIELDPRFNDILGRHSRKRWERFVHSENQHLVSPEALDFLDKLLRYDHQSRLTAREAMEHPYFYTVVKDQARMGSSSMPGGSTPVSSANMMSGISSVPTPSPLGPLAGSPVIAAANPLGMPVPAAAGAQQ
Protocol: as §1

CSNK2A2 = CSNK2A2 (Homo sapiens, UniProt P19784); assay: NanoBRET in-cell target engagement in HEK293T cells: CSNK2A2; assay type: cell-based; design: full-length PKN3, CSNK2A1 or CSNK2A2 ORF; host or cells: HEK293T
Sequence of CSNK2A2 (P19784 whole entry, the tested form may be a part): as the sequence (P19784 whole entry) above
Protocol: The NanoBRET assay was performed as described previously[28],[58]. In brief, full-length PKN3, CSNK2A1 or CSNK2A2 ORF (PKN3 vector was a kind gift of Promega, Vectors for […]: NV2981, NV1191) cloned in frame with a C-terminal NanoLuc-fusion, respectively, were transfected into HEK293T cells using FuGENE HD (Promega, E2312) and proteins were allowed to express for 20 h. Serially diluted inhibitor and NanoBRET Kinase Tracer K5 (Promega, N2530) at 500 nM (PKN3) or NanoBRET Kinase Tracer K10 (Promega, N2840) at 500 nM ([…]) were pipetted into 384-well plates using an Echo acoustic dispenser (Labcyte). The PKN3, CSNK2A1 or CSNK2A2 transfected cells were added at a density of 2 × 10^5 cells per ml after trypsinization and resuspending in Opti-MEM without phenol red (Life Technologies). The system was allowed to equilibrate for 2 h at 37 °C and 5% CO2 before BRET measurements. BRET signaling was measured by adding NanoBRET NanoGlo Substrate and Extracellular NanoLuc Inhibitor (Promega) according to the manufacturer’s protocol. Filtered luminescence was measured on a PHERAstar plate reader (BMG Labtech) equipped with a luminescence filter pair (450 nm BP filter (donor) and 610 LP filter (acceptor)). Competitive displacement data were then graphed using GraphPad Prism software (v.5.01) using a three-parameter curve fit with the following equation Y=bottom+(top−bottom)/1+10^logIC50−X×hillslope
Experiments were performed with at least two biological and two technical replicates.

ULK1 = target: T4, ULK1 (Homo sapiens, UniProt O75385); assay: Kinobeads two-dose competition binding: ULK1; details: read-out: Lestaurtinib Drugmatrix value, Gene Name ULK1; repeated control pulldowns; each column = experiment id and replicate (Lestaurtinib_02339_R1 ... Lestaurtinib_03260_R3)
T4 construct: to maximize the representation of endogenous proteins; endogenous in cells
T4 sequence (O75385 whole entry): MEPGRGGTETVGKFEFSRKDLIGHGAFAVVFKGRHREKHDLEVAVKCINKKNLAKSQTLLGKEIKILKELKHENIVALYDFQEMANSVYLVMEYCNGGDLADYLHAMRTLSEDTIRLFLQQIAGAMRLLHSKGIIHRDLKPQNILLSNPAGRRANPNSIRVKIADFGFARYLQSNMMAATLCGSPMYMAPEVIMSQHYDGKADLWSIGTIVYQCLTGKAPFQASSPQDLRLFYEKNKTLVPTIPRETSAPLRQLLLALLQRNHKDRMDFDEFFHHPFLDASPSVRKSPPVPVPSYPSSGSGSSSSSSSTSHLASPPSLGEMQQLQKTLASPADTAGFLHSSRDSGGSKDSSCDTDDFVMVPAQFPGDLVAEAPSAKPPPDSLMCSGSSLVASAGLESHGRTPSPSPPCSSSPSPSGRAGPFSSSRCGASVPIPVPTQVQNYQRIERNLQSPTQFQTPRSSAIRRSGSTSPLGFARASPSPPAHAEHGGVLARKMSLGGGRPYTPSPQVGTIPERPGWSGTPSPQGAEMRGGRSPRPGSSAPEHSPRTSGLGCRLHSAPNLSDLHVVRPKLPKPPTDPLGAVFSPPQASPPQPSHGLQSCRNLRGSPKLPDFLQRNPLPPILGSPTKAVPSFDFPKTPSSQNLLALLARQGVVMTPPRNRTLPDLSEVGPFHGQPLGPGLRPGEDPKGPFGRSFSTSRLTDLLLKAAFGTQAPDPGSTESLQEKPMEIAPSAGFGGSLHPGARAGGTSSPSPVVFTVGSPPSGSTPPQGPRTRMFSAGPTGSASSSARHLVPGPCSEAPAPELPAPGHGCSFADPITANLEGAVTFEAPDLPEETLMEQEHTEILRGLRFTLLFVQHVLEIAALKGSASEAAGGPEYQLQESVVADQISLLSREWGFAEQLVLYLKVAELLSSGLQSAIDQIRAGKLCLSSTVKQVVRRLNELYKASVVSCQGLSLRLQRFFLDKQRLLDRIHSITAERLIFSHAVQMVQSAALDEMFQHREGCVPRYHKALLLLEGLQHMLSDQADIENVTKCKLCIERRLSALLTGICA

EPHA5 = target: T5, EPHA5 (Homo sapiens, UniProt P54756); assay: Kinobeads two-dose competition binding: EPHA5; details: read-out: Lestaurtinib Drugmatrix value, Gene Name EPHA5
T5 construct: endogenous in cells
T5 sequence (P54756 25-1037): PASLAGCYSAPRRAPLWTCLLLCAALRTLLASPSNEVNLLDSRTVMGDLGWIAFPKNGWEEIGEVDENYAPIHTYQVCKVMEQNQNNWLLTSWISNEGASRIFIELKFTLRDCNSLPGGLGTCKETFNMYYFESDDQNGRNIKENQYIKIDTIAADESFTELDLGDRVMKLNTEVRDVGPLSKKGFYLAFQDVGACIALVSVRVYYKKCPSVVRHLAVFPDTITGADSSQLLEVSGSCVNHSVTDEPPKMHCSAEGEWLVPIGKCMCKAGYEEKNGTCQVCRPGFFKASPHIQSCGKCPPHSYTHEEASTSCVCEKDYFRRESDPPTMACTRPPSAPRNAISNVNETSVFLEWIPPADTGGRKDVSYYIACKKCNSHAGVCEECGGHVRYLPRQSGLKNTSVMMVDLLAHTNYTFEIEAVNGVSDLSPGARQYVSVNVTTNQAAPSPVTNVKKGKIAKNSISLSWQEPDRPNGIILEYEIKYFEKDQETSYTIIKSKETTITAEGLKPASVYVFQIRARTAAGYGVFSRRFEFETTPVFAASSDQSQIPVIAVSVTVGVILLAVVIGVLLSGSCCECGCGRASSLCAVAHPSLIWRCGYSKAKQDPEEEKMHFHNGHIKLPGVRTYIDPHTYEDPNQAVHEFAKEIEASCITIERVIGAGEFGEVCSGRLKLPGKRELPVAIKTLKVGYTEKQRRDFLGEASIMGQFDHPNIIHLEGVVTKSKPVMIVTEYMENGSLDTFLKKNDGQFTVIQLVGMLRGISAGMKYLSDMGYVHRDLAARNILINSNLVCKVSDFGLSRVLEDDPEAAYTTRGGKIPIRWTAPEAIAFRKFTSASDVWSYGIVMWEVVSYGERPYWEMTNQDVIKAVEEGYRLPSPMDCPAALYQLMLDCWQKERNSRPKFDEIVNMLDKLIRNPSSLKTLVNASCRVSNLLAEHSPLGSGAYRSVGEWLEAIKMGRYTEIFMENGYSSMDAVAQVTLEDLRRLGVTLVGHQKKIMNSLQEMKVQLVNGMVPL

ERN1 = target: T6, ERN1 (Homo sapiens, UniProt O75460); assay: Kinobeads two-dose competition binding: ERN1; details: read-out: Lestaurtinib Drugmatrix value, Gene Name ERN1
T6 construct: endogenous in cells

PAK6 = target: T7, PAK6 (Homo sapiens, UniProt Q9NQU5); assay: Kinobeads competition binding, Lestaurtinib control replicates: PAK6; details: read-out: Lestaurtinib Drugmatrix value; Gene Name PAK6; one column per experiment number and replicate (R1-R3)
T7 construct: a mixture of lysates from five cancer cell lines; endogenous in cells

EPHB1 = target: T8, EPHB1 (Homo sapiens, UniProt P54762); assay: Kinobeads two-dose competition binding: EPHB1; details: read-out: Lestaurtinib Drugmatrix value, Gene Name EPHB1; target EPHB1; each column = one Lestaurtinib control replicate (batch_R1-R3)
T8 construct: endogenous in cells
T8 sequence (P54762 18-984): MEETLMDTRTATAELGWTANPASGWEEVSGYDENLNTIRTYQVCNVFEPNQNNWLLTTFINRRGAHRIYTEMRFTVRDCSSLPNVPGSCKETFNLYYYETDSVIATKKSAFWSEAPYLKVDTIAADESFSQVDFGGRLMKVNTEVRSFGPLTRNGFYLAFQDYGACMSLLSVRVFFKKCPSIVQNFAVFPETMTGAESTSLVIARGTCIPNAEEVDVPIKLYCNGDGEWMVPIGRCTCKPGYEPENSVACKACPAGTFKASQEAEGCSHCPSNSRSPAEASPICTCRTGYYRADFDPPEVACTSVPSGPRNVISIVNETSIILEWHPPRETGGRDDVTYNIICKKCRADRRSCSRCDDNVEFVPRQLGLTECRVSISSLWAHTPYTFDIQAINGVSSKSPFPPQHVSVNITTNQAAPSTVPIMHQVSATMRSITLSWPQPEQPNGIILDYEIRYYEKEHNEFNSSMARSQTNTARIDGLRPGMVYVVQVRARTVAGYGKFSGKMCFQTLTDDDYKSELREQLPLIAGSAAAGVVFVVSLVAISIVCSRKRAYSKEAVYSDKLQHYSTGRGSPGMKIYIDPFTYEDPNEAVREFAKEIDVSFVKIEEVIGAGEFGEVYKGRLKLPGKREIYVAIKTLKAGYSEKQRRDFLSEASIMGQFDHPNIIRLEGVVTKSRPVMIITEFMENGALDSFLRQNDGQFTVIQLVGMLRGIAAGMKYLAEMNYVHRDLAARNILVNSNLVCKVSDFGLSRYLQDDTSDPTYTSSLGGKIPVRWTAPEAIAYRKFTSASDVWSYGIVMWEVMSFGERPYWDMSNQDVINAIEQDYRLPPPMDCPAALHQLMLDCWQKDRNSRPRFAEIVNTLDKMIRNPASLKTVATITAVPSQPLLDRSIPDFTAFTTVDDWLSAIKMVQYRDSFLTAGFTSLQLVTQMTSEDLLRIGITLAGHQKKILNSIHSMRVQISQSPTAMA

T1 sequence (O14578 whole entry): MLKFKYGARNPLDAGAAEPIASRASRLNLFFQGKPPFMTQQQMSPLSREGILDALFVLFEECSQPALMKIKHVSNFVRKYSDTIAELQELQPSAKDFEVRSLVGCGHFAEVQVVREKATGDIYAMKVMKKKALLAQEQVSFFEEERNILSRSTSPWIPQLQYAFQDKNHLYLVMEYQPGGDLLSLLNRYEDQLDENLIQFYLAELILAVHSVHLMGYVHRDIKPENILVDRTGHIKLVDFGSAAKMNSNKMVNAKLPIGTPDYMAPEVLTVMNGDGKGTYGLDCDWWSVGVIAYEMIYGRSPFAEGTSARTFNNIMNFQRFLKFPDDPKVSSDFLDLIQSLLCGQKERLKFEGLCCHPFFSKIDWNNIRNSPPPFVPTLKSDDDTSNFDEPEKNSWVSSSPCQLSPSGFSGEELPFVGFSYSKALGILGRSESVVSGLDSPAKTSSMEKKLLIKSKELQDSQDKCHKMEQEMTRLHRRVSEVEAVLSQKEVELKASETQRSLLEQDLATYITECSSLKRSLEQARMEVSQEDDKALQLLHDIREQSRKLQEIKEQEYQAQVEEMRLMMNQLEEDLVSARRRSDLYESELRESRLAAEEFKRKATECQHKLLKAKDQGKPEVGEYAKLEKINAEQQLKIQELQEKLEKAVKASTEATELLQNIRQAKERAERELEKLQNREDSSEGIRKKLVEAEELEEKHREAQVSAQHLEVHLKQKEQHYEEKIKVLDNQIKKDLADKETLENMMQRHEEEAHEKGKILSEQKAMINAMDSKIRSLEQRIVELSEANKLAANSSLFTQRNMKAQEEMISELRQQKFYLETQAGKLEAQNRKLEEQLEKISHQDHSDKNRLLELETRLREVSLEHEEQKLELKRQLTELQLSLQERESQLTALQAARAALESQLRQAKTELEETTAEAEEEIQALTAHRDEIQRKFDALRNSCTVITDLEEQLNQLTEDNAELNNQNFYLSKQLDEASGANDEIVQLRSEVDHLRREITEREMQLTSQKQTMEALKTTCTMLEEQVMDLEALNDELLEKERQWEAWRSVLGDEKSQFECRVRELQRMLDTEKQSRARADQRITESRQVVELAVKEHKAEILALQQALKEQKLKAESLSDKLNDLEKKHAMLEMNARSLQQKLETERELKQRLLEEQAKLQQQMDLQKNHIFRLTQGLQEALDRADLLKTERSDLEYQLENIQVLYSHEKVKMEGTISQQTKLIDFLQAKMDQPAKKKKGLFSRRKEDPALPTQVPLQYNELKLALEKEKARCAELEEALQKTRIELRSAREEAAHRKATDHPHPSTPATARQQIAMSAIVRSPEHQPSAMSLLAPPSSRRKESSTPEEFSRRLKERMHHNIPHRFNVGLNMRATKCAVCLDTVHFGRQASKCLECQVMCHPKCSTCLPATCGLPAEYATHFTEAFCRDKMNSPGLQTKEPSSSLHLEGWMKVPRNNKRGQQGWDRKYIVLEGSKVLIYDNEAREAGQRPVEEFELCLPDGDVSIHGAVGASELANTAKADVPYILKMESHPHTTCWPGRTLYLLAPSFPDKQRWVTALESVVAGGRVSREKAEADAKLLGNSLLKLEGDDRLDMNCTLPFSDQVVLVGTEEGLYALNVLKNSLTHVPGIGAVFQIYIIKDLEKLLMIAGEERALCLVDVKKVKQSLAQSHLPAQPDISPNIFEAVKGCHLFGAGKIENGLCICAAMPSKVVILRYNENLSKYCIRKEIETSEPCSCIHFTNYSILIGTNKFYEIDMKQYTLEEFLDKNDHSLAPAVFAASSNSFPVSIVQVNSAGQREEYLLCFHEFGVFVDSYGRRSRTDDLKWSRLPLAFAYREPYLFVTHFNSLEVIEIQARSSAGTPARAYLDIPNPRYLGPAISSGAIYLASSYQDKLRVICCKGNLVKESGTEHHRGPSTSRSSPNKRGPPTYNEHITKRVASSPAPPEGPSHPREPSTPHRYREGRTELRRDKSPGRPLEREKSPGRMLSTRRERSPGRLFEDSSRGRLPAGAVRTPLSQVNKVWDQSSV

Structure (SMILES): CCn1c(-c2nonc2N)nc2c(C#CC(C)(C)O)nc(OCCN)cc21 [GSK902056A]
- Relative Intensity 0.3nM (CIT; 0.3nM compound, DMSO = 1): 1.0296
- Relative Intensity 1nM (CIT; 1nM compound, DMSO = 1): 1.0023
- Relative Intensity 3nM (CIT; 3nM compound, DMSO = 1): 1.019
- Relative Intensity 10nM (CIT; 10nM compound, DMSO = 1): 1.082
- Relative Intensity 30nM (CIT; 30nM compound, DMSO = 1): 1.01
- Relative Intensity 100nM (CIT; 100nM compound, DMSO = 1): 0.9604
- Relative Intensity 300nM (CIT; 300nM compound, DMSO = 1): 0.7575
- Relative Intensity 1000nM (CIT; 1000nM compound, DMSO = 1): 0.5648
- Kd (CIT; EC50 with Correction, doses in nM, read-out: apparent Kd): 279 nM
- EC50 (CIT; eight-dose curve fit, doses in nM): 279 nM

Structure (SMILES): COc1cc(Nc2ncc3c(C)nc(-c4cc5ccccc5[nH]4)n3n2)cc(OC)c1OC [GW869516X]
- IC50 (CK2alpha2 (CSNK2A2); Enzyme CK2alpha2, Highest Assay Concentration 1.00E-06 M, read-out: IC50): 33.7 nM
- IC50 (CK2alpha2 (CSNK2A2); recombinant kinase activity assay at KM (ATP), read-out: Activity IC50 CSNK2A2): 34 nM
- IC50 (CK2alpha1 (CSNK2A1); Enzyme CK2alpha1, Highest Assay Concentration 1.00E-06 M, read-out: IC50): 85.1 nM
- IC50 (CK2alpha1 (CSNK2A1); recombinant kinase activity assay at KM (ATP), read-out: Activity IC50 CSNK2A1): 85 nM
- IC50 (CSNK2A2; CSNK2A2, replicate 1, read-out: NanoBRET Rep1): 135 nM
- IC50 (CSNK2A2; CSNK2A2, replicate 2, read-out: NanoBRET Rep2): 503 nM
- IC50 (CSNK2A2; HEK293T cells, in-cell target engagement, read-out: IC50 CSNK2A2 NanoBRET): 319 nM

Structure (SMILES): C[C@]12O[C@H](C[C@]1(O)CO)n1c3ccccc3c3c4c(c5c6ccccc6n2c5c31)CNC4=O [Lestaurtinib]
- potency estimated from few doses (ULK1): 549 nM
- potency estimated from few doses (EPHA5): 255 nM
- potency estimated from few doses (ERN1): 176 nM
- potency estimated from few doses (PAK6): 151 nM
- potency estimated from few doses (EPHB1): 403 nM
